Structures are written as SMILES.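 Grown in 96-well plates, cells were treated for 48 hours with each compound at five concentrations. Insufficient inhibition: endpoint recorded as highest concentration tested. TGI marks complete inhibition of growth.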

Test systems include UACC-257 melanoma; NCI-H23 lung; UACC-62 melanoma; SN12C renal; SK-MEL-5 melanoma; MDA-N; COLO 205 colon; HT29 colon; ACHN renal; U251 CNS; MALME-3M melanoma; NCI-H226 lung; UO-31 renal; SK-MEL-28 melanoma; EKVX NSCLC; DU-145 prostate; NCI/ADR-RES ovarian; SF-539 CNS; SF-268 CNS; SF-295 CNS.
Holding throughout (test): growth of human tumour cells (NCI), 48 h

As to `CCOC(=O)CCC(NC(=O)C(N)c1ccc([N+](=O)[O-])cc1)C(=O)NC(CCC(=O)OCC)C(=O)OCC` (centres undefined), the TGI in the assay with UACC-257 melanoma, with NCI-H23 lung, in the assay with UACC-62 melanoma, in the assay on SN12C renal, in the assay on SK-MEL-5 melanoma and in the assay on MDA-N was over 100 µM throughout. Besides, the TGI in the assay with COLO 205 colon, in the assay on HT29 colon, in the assay on ACHN renal, with U251 CNS, in the assay on MALME-3M melanoma and with NCI-H226 lung was over 100 µM each time. For the same compound, the TGI with UO-31 renal, in the assay with SK-MEL-28 melanoma and with EKVX NSCLC was over 100 µM each time.
Turning to `NC(=O)C(=CNC(=S)Nc1ccc(S(=O)(=O)Nc2ccccn2)cc1)C(N)=O`, the TGI with DU-145 prostate, in the assay with UACC-257 melanoma, in the assay with NCI-H23 lung, in the assay on UACC-62 melanoma, in the assay with SN12C renal and in the assay with SK-MEL-5 melanoma was over 100 µM throughout. Besides, the TGI with MDA-N, in the assay on COLO 205 colon, in the assay with HT29 colon, in the assay on NCI/ADR-RES ovarian, in the assay with SF-539 CNS and with SF-268 CNS was over 100 µM in each case. The TGI in the assay on ACHN renal, in the assay on U251 CNS, in the assay on NCI-H226 lung, in the assay with UO-31 renal, with SK-MEL-28 melanoma and with SF-295 CNS was over 100 µM in each case. Moreover, in the assay with EKVX NSCLC, the TGI is over 100 µM.
Consider `O=C(Cn1c(=O)oc2ccc(C(=O)c3ccc(F)cc3)cc21)c1ccccc1`, for which the TGI in the assay on DU-145 prostate, in the assay on UACC-257 melanoma, in the assay on NCI-H23 lung, in the assay with UACC-62 melanoma, with SN12C renal and in the assay on SK-MEL-5 melanoma was over 100 µM throughout. The TGI in the assay with MDA-N, in the assay on COLO 205 colon, in the assay with HT29 colon, with NCI/ADR-RES ovarian, with SF-539 CNS and in the assay on SF-268 CNS was over 100 µM in each case. In addition, the TGI with ACHN renal, in the assay on U251 CNS, with MALME-3M melanoma, with NCI-H226 lung, in the assay on UO-31 renal and with SK-MEL-28 melanoma was over 100 µM each time.
In the case of `O=c1cc(NNc2ccccc2F)[nH]c(=O)[nH]1`, the TGI was over 100 µM with DU-145 prostate; 32 µM in the assay with UACC-257 melanoma; 31.6 µM in the assay on NCI-H23 lung; 30.9 µM in the assay with UACC-62 melanoma; 49.5 µM in the assay on SK-MEL-5 melanoma; 32.5 µM in the assay with MDA-N. In addition, the TGI in the assay with COLO 205 colon is 33.8 µM; in the assay with HT29 colon it was 34.9 µM; with NCI/ADR-RES ovarian, 31.4 µM; in the assay with SF-539 CNS, 30.7 µM; in the assay with SF-268 CNS, 35.2 µM; in the assay on ACHN renal, 32.3 µM. In addition, the TGI is 31.9 µM in the assay on U251 CNS; 33.3 µM in the assay with MALME-3M melanoma; 42.8 µM in the assay with NCI-H226 lung; 24.6 µM in the assay on UO-31 renal; 35.1 µM in the assay with SK-MEL-28 melanoma.
Regarding `CCOC(=O)c1nc2ccc(C(F)(F)F)cc2nc1Nc1ccc(F)cc1`, the TGI in the assay on DU-145 prostate, with UACC-257 melanoma, with NCI-H23 lung, in the assay on UACC-62 melanoma, in the assay on SN12C renal and with MDA-N was over 100 µM each time. Moreover, the TGI in the assay with COLO 205 colon, in the assay with HT29 colon, in the assay on NCI/ADR-RES ovarian, in the assay on SF-539 CNS, in the assay on SF-268 CNS and in the assay on ACHN renal was over 100 µM in each case. In addition, the TGI with MALME-3M melanoma, with UO-31 renal, in the assay with SK-MEL-28 melanoma and with SF-295 CNS was over 100 µM throughout.
Regarding `[N-]=[N+]=Nc1ccc2c(c1)Sc1ccccc1N2CCCCN1CCN(Cc2ccc(C(=O)c3ccc(CSCC(N)C(=O)O)cc3)cc2)CC1` (centres undefined), the TGI in the assay with DU-145 prostate was 67.7 µM; in the assay with UACC-257 melanoma, 69.2 µM; in the assay on NCI-H23 lung, 74.2 µM; in the assay with UACC-62 melanoma, 24.4 µM; in the assay on SN12C renal, over 100 µM; in the assay with SK-MEL-5 melanoma, 34.9 µM. The TGI is 35.4 µM with MDA-N; 40.1 µM with COLO 205 colon; 30.7 µM in the assay with HT29 colon; over 100 µM in the assay on SF-268 CNS; over 100 µM in the assay with ACHN renal; 26.4 µM with U251 CNS. Besides, the TGI in the assay with NCI-H226 lung was 35.6 µM; in the assay with UO-31 renal, over 100 µM; in the assay with SK-MEL-28 melanoma, 3.8 µM; with SF-295 CNS, 44.5 µM; with EKVX NSCLC it was over 100 µM.
Turning to `COc1cccc(C=C2N=C(c3ccccc3)N(n3c(-c4ccccc4)nc4ccccc4c3=O)C2=O)c1`, the TGI in the assay on DU-145 prostate, in the assay on UACC-257 melanoma, in the assay on NCI-H23 lung, in the assay with UACC-62 melanoma, in the assay on SN12C renal and in the assay with SK-MEL-5 melanoma was over 100 µM each time. For the same compound, the TGI with MDA-N, in the assay on COLO 205 colon, in the assay on HT29 colon, with SF-539 CNS, with SF-268 CNS and in the assay with ACHN renal was over 100 µM each time. For the same compound, the TGI with MALME-3M melanoma, in the assay with NCI-H226 lung, with UO-31 renal, with SK-MEL-28 melanoma, in the assay with SF-295 CNS and in the assay with EKVX NSCLC was over 100 µM each time.
As for `CC(=O)Oc1c(OC(C)C)c(C)c(O[Si](C(C)C)(C(C)C)C(C)C)c2[nH]c3ccccc3c12`, the TGI in the assay with DU-145 prostate, in the assay with UACC-257 melanoma, in the assay on NCI-H23 lung, in the assay with UACC-62 melanoma, in the assay on SN12C renal and in the assay with SK-MEL-5 melanoma was over 100 µM each time. The TGI in the assay on MDA-N, in the assay on COLO 205 colon, in the assay with HT29 colon, in the assay on NCI/ADR-RES ovarian, with SF-539 CNS and in the assay with SF-268 CNS was over 100 µM each time. The TGI in the assay with ACHN renal, in the assay on U251 CNS, with NCI-H226 lung, with UO-31 renal, in the assay on SK-MEL-28 melanoma and in the assay on SF-295 CNS was over 100 µM each time. Further, in the assay with EKVX NSCLC, the TGI was over 100 µM.

These data come from PubChem BioAssay (NCI).
